Data set [1] relates to human breast cancer MDA-MB-231 cell line. Put plainly: AlamarBlue cytotoxicity, RISE and nano-Ca@RISE, MDA-MB-231. The format is cell-based. The conditions noted are these: for viability at 35 µM / viability at 40 µM / viability at 45 µM / viability at 50 µM / IC50: Homo sapiens; for viability at 35 µM / viability at 40 µM / viability at 45 µM / viability at 50 µM: read-out: Relative cell viability (% RCL), MDA-MB-231. The method, then: Cell culture methods. The MDA-MB-231 cell line was incubated with DMEM, 1% Pen-Strep, and 10% FBS at 37° C. in 5% CO2. The hFOB 1.19 cell line was incubated with 1:1 DMEM:F-12, 0.3 mg/mL G418, and 10% FBS at 34° C. in 5% CO2. Cell passages were performed weekly at 80% of cell confluency, media was exchanged twice a week.
Cell treatments. Both cell lines were treated with RISE (control) and nano-Ca@RISE (experimental). […]. Both cell lines (MDA-MB-231 and hFOB 1.19) were seeded in 96 well plates at 2.5×10^5 cell/mL. The cells were incubated for 24 h at 37° C. (MDA-MB-231) and 34° C. (hFOB 1.19), respectively. After the initial incubation period, both cell lines were treated with 100 μL of the RISE solutions previously prepared, and incubation was performed for 24, 48, and 72 h at the respective incubation temperatures. For both cell lines, media (MDA-MB-231: DMEM, Pen-Strep) and (hFOB 1.19: DMEM, F-12, G418) were used with control groups. AlamarBlue® assay was utilized to determine cell proliferation, for this, 10% of AlamarBlue® solution in PBS was prepared. Finally, the media was removed from the 96 well plates, 100 μL of 10% AlamarBlue® solution was added, and the cells were incubated for 4 h at the same previously mentioned conditions. After the AlamarBlue® assay, the fluorescence (λexc=560 nm, λem=590 nm) was evaluated employing an Infinite M200 PRO Tecan Microplate Reader. […]. The nonlinear regression method using Graph Pad Prism 8 was applied to fit the dose-response curves (% cell live vs concentration) and determined the IC50 values for RISE.
[…]. Treatments at these concentrations were carried out at 24, 48, and 72 h for RISE and nano-Ca@RISE. The cell seeding and AlamarBlue® assay were completed as described above for the IC50 determination in both cell lines. […]. All experiments were performed in triplicates and the data was statistically treated using mean, standard deviation, and the coefficient of variation percentage (% CV).
Cell culture methods for the MDA-MB-231 cell line. This cell line was grown in Dulbecco's Modified Eagle's Medium (DMEM) supplemented with 10% fetal bovine serum (FBS) and 1% penicillin-streptomycin (Pen-Strep), incubated at 37° C. and 5% CO2. Cell passage and cell treatment were performed at 80% of cell confluency. The completed growth media was exchanged every two days.
Cell seeding. The MDA-MB-231 and hFOB 1.19 cell lines were seeded in 96 well plates at a density of 2.5×10^5 cells/mL, incubation was carried out for 24 h at 37° C. for MDA-MB-231 and 34° C. for osteoblast hFOB 1.19, in 5% CO2. The experiments were conducted in triplicates, three 96 well plates were made for each treatment period (24, 48, and 72 h).
Cell treatment. To determine the half-maximal inhibitory concentration (IC50), for both cell lines, two-fold serial dilutions of RISE (0-200 μM) were prepared. To assess the relative cell live (% RCL) were employed selected […] (50, 45, 40, and 35 μM) of RISE and nano-Ca@RISE for MDA-MB-231 and hFOB 1.19 cell lines. For this, after the seeding, 100 μL of RISE and nano-Ca@RISE were used to treat the cells. The control groups were treated with just media. Both cell lines were incubated for 24, 48, and 72 h after RISE and nano-Ca@RISE solutions were added.
AlamarBlue@assay. For both cell lines, after the 24, 48, and 72 h of treatment, the media was removed from the 96 well plates. Subsequently, 100 μL of 10% AlamarBlue® solution was added and incubation was carried out for 4 h. The fluorescence (λexc=570 nm, λem=590 nm) was measured employing an Infinite M200 PRO Tecan Microplate Reader. […]. The IC50 curves and the % RCL values were plotted using the Graph Pad Prism 8 program.
(Alamar Blue is a resazurin reagent that responds to reducing activity.)

For data set [2] the following is noted: FaSSGF pH 1.60.

SMILES strings stand for the structures. Like-named read-outs stand apart in the source and are kept apart here.

As for `O=P(O)(O)C(O)(Cc1cccnc1)P(=O)(O)O` [RISE, Monosodium risedronate hemipentahydrate], the viability – broadly, a read-out of living cells in per cent, often relative to untreated cells – at 35 µM in data set [1] (MDA-MB-231, 24 h, 35 μM, 24 h) is 101 ± 2%; in data set [1] (MDA-MB-231, 48 h, 35 μM, 48 h), 100 ± 2%; in data set [1] (MDA-MB-231, 72 h, 35 μM, 72 h) it was roughly 100%. The viability at 40 µM in data set [1] (MDA-MB-231, 24 h, 40 μM, 24 h) stood at 100 ± 2%; in data set [1] (MDA-MB-231, 48 h, 40 μM, 48 h) it was 100 ± 3%; in data set [1] (MDA-MB-231, 72 h, 40 μM, 72 h) it was 94 ± 1%. For the same compound, the viability at 45 µM was found to be 100 ± 2% in data set [1] (MDA-MB-231, 24 h, 24 h); 98 ± 2% in data set [1] (MDA-MB-231, 48 h, 48 h); 94 ± 2% in data set [1] (MDA-MB-231, 72 h, 72 h). Besides, the viability at 50 µM in data set [1] (MDA-MB-231, 24 h, 24 h) came out at 99 ± 2%; in data set [1] (MDA-MB-231, 48 h, 48 h), 97 ± 3%; in data set [1] (MDA-MB-231, 72 h, 72 h), 93 ± 2%. For the same compound, the IC50 – broadly, the point on the concentration scale where inhibition reaches its midpoint – in data set [1] (MDA-MB-231, 24 h) was greater than 200 µM; in data set [1] (MDA-MB-231, 48 h), 175 ± 3 µM; in data set [1] (MDA-MB-231, 72 h), 98 ± 3 µM. Further, the “Relative cell viability (% RCL)” value in data set [1] (MDA-MB-231, 35 μM, 72 h) was found to be 96 ± 2%. Besides, the “% RCL” value in data set [1] (MDA-MB-231, 40 μM, time not stated) is roughly 100%. The “time to reach maximum dissolution” value in data set [2] came to 1 min.

The values above are taken from patent US20250296942A1, “Phosphonate-Based Coordination Complexes and Methods of Preparation and Use Thereof” (University of Puerto Rico, priority 2021, published 2025).
